Experimental data as given in the NIST ThermoML archive (doi:10.1016/j.fluid.2006.08.004).
Numbers after ± are expanded uncertainties.

Tests used:
[1] = Liquid; for mass density: 298.15 K, 101.33 kPa; for Normal boiling temperature: Ebulliometric method (Recirculating still)
[2] = refractive index (Na D-line) (dimensionless); conditions: 298.15 K; 101.33 kPa; Liquid; Standard Abbe refractometry

mass density [1] [kg/m3] | Normal boiling temperature [1] [°C] | refractive index [2] | Compound
687.72 ± 0.65 | 99.18 ± 0.01 | 1.38887 ± 0.00068 | CC(C)CC(C)(C)C [2,2,4-trimethylpentane]
718.37 ± 1.2 | 68.38 ± 0.1 | 1.36512 ± 0.0007 | CC(C)OC(C)C [diisopropyl ether]
785.09 ± 0.25 | 78.29 ± 0.01 | 1.35926 ± 0.00068 | CCO [ethanol]
